Reference: patent publication US10660789B2, “1,4-dihydropyridine derivatives with HSP modulating activity” (Richter Gedeon NYRT., priority 2011, dated 2020)
Counter-ions that a name gives are not always drawn.

Columns and labels:
Hsp70 promoter = assay: Hsp promoter probing, Hsp70 promoter-YFP reporter, flow cytometry (Table 3); format: cell-based, mouse and human; parameters: key: +: co-inducing activity; −: silencing activity; 0: with the experimental methods applied no other HSP modulating effects could be identified; conditions: heat shock 42° C. 1 h, 16 h recovery; B16 or SHSY5Y reporter cells, cell line per value not stated
Procedure: (§1) The Hsp co-inducing effect of the compounds on stress response was tested on B16 mouse melanoma and SHSY5Y human neuroblastoma cell lines stably transfected with Hsp promoter probing plasmids. This kind of promoter probing, using the promoter region of a given gene conjugated with fluorescent protein is used as a best and fastest test system for finding drugs which modulate the activity of the gene followed by the given promoter (Wyshocka et al., Mol. Cel. Biochem. 215:153-156, 2000).
The Hsp encoding genes are transactivated through the binding of HSF to the heat shock element found on the DNA upstream of the Hsp genes, in the so called promoter region. In the absence of heat stress, the heat shock factors are present as monomers. Upon heat stress, however, the heat shock factors form trimers, which are the active components, able to bind to heat shock elements. Once HSF is bound to the heat shock element in the promoter of Hsp genes, the gene following the promoter region is transcriptionally active.
(§2) Reporter plasmids, containing the Hsp70 and/or Hsp25 promoter conjugated to either YFP or GFP (yellow or green fluorescent protein), were stably transfected into the cells and the expression of YFP or GFP was followed by flow cytometry. Cells were either kept at 37° C. or exposed to heat shock at 42° C. for 1 hour followed by a 16 hour recovery period at 37° C. in the presence or absence of different concentrations of the test compound. After recovery the expression of YFP or GFP which is in straight correlation with the promoter activity of Hsp70 or Hsp27 genes was followed by measuring the fluorescence intensity of the cells by flow cytometry. Fluorescence intensity is in straight correlation with the amount of fluorescent protein (GFP or YFP) produced under the control of hsp promoter. The mean fluorescence intensity of YFP or GFP produced is shown as “Hsp promoter activity”.
(§3) Cells were homogenously distributed on 6-well plates in 1×10^5 cells/well density. B16-pHsp25-GFP and B16-pHsp70-YFP melanoma cells were grown in RPMI-1640 medium supplemented with 10% Fetal bovine serum (FBS), penicillin (200 units/ml), streptomycin (200 μg/ml) and 2 mM L-Glutamine. For maintaining the SH-SY5Y-pHsp25-GFP and SH-SY5YpHsp70-YFP neuroblastoma cell lines Dulbecco's modified Eagle's medium (DMEM-F-12) containing 10% FBS, 2 mM L-Glutamine, penicillin (200 units/ml), streptomycin (200 μg/ml) and MEM non-essential amino acids were used. Before the treatments both cell lines were incubated at 37° C. in a saturated humidity atmosphere containing 95% air and 5% CO2. After 24 h incubation cells were pretreated with compounds of the invention in four different concentrations (usually in 3; 10; 20 and 50 μM) 30 min before the heat shock at 42° C. for 1 h and then incubated further at 37° C. for 16 h (recovery period). After this procedure cells were trypsinized and suspensed in 500 μl serum-free DMEM-F12 medium. The changes in cells' fluorescence were detected using BD FACSCalibur flow cytometer.

other Hsps = assay: Other in vitro HSP modulating effects (Table 3); format: cell-based, mouse and human; parameters: key: +: co-inducing activity; −: silencing activity; 0: with the experimental methods applied no other HSP modulating effects could be identified
Procedure: as §1, §2, §3
SY-SY5Y and B16 cells were extracted in NP-40 lysis buffer (PBS pH 7.4, 1% protease inhibitor coctail and 1% Triton X-100). The cell extracts were then constantly agitated at 4° C. for 2 h. The cell extracts were centrifuged at 12000×g for 30 min and supernatants were saved. After the protein concentration measurement 15 μg of total protein was separated by sodium dodecyl sulfate-polyacrylamide gel electrophoresis (SDS-PAGE) under reducing conditions according to the method of Laemmli. Proteins were blotted onto PVDF membrane. The blot was incubated overnight at 4° C. in the presence of mouse α-Hsp25, α-Hsp70, α-Hsp60 és α-Hsp90 monoclonal antibodies diluted in PBS. Then, the membrane was washed three times in PBS-0.05% Tween and incubated for 1 h in peroxidase-conjugated anti-mouse IgG antibody diluted 1:50000 in PBS containing 3% non-fat dry milk. The immune complexes were detected with chemo-luminescent substrate of peroxidase according to the supplier's instructions. Images taken from the membranes were analyzed using AlphaEase FC software.

| Compound | Hsp70 modulation (Hsp70 promoter) | melting point [°C] | Other in vitro effects (other Hsps) |
| --- | --- | --- | --- |
| COC(=O)C1=C(C)N(C)C(C)=C(C(=O)OC)C1c1ccc(F)cc1 [Example 2, Dimethyl 1,2,6-trimethyl-4-(4-fluorophenyl)-1,4-dihydropyridine-3,5-dicarboxylate] | + | 184 to 185 | 0 |
| COC(=O)C1=C(C)N(C)C(C)=C(C(=O)OC)C1c1ccccc1 [Example 3, Dimethyl 1,2,6-trimethyl-4-phenyl-1,4-dihydropyridine-3,5-dicarboxylate] | + | 201 to 203 | 0 |
| COC(=O)C1=C(C)N(C)C(C)=C(C(=O)OC)C1c1cccc(C(F)(F)F)c1 [Example 7, Dimethyl 1,2,6-trimethyl-4-(3-trifluoromethylphenyl)-1,4-dihydropyridine-3,5-dicarboxylate] | + | 118 to 119 | 0 |
| COC(=O)C1=C(C)N(C)C(C)=C(C(=O)OC)C1c1ccccc1C(F)(F)F [Example 8, Dimethyl 1,2,6-trimethyl-4-(2-trifluoromethylphenyl)-1,4-dihydropyridine-3,5-dicarboxylate] | + | 168 to 170 | 0 |
| COC(=O)C1=C(C)N(C)C(C)=C(C(=O)OC)C1c1ccc(-n2ccnc2)cc1 [Example 10, Dimethyl 1,2,6-trimethyl-4-(4-(1-imidazoly)lphenyl)-1,4-dihydropyridine-3,5-dicarboxylate] | + | 201 to 202 | 0 |
| COC(=O)C1=C(C)N(C)C(C)=C(C(=O)OC)C1c1cccnc1 [Example 12, Dimethyl 1,2,6-trimethyl-4-(3-piridyl)-1,4-dihydropyridine-3,5-dicarboxylate] | − | 173 to 175 | 0 |
| COC(=O)C1=C(C)N(C)C(C)=C(C(=O)OC)C1c1cc(F)cc(F)c1 [Example 24, Dimethyl 4-(3,5-difluorophenyl)-1,2,6-trimethyl-1,4-dihydropyridine-3,5-dicarboxylate] | + | 167 to 168 | 0 |
| COC(=O)C1=C(CCN(C)C)N(C)C(CCN(C)C)=C(C(=O)OC)C1c1cc(F)cc(F)c1 [Example 25, Dimethyl 4-(3,5-Difluorophenyl)-2,6-bis-(2-dimethylaminoethyl)-1-methyl-1,4-dihydropyridine-3,5-dicarboxylate dihydrochloride] | + |  | 0 |
| COC(=O)C1=C(C)N(C)C(CCN(C)C)=C(C(=O)OC)C1c1cc(F)cc(F)c1.Cl (centres unmarked) [Example 26, Dimethyl 4-(3,5-difluorophenyl)-2-(2-dimethylamino-ethyl)-1,6-dimethyl-1,4-dihydropyridine-3,5-dicarboxylate hydrochloride] | + | 201 to 203 | 0 |
| COC(=O)C1=C(CCN(C)C)N(C)C(CCN2CCCCC2)=C(C(=O)OC)C1c1ccc(C(F)(F)F)cc1 (centres unmarked) [Example 30, Dimethyl 2-(2-dimethylamino-ethyl)-1-methyl-6-(2-piperidin-1-yl-ethyl)-4-(4-trifluoromethylphenyl)-1,4-dihydropyridine-3,5-dicarboxylate dihydrochloride] | + |  | 0 |
| CCOC(=O)C1=C(C)N(C)C(C)=C(C(=O)OC)C1c1ccc(C(F)(F)F)cc1 (centres unmarked) [Example 32] | + | 146 to 149 | 0 |
| CCOC(=O)C1=CN(C2CC2)C=C(C(=O)OCC)C1c1ccc(C(F)(F)F)cc1 [Example 33, Diethyl 1-cyclopropyl-4-(4-trifluoromethylphenyl)-1,4-dihydro-pyridine-3,5-dicarboxylate] | + | 123 to 124 | 0 |
| CCOC(=O)C1=CN(Cc2ccccc2)C=C(C(=O)OCC)C1c1ccc(C(F)(F)F)cc1 [Example 34] | + | 107 to 108 | 0 |
| CCOC(=O)C1=CN(C)C=C(C(=O)OCC)C1c1ccc(C(F)(F)F)cc1 [Example 37, Diethyl 1-methyl-4-(4-trifluoromethylphenyl)-1,4-dihydropyridine-3,5-dicarboxylate] | + | 94 to 96 | 0 |
| CCOC(=O)C1=CN(Cc2ccccc2)C=C(C(=O)OCC)C1c1ccccc1 [Example 38, Diethyl 1-benzyl-4-phenyl-1,4-dihydropyridine-3,5-dicarboxylate, reference compound] | + |  | 0 |
| O=C(O)C1=CN(Cc2ccccc2)C=C(C(=O)O)C1c1ccccc1 [Example 39, 1-Benzyl-4-phenyl-1,4-dihydropyridine-3,5-dicarboxylic acid] | − | 204 to 206 | 0 |
| COC(=O)C1=C(C)N(C)C(CCN2CCc3ccccc3C2)=C(C(=O)OC)C1c1ccc(C(F)(F)F)cc1.O=C(O)/C=C/C(=O)O (centres unmarked) [Example 40, Dimethyl 2-[2-(1,2,3,4-tetrahidroisoquinolin-2-yl)-ethyl]-1,6-dimethyl-4-(4-trifluoromethyl-phenyl)-1,4-dihydropyridine-3,5-dicarboxylate fumarate] | + | 186 to 188 | 0 |
| COC(=O)C1=C(C)N(C)C(CCN2CCc3cc(OC)c(OC)cc3C2)=C(C(=O)OC)C1c1ccc(C(F)(F)F)cc1.Cl (centres unmarked) [Example 41, Dimethyl 2-[2-(6,7-dimethoxy-1,2,3,4-tetrahydroisoquinolin-2-yl)-ethyl]-1,6-dimethyl-4-(4-trifluoromethylphenyl)-1,4-dihydropyridine-3,5-dicarboxylate hydrochloride] | + | 176 to 181 | 0 |
| COC(=O)C1=C(CCN(C)C)N(C)C(CCN2CCc3cc(OC)c(OC)cc3C2)=C(C(=O)OC)C1c1ccc(C(F)(F)F)cc1 (centres unmarked) [Example 42, Dimethyl 2-[2-(6,7-dimethoxy-1,2,3,4-tetrahydroisoquinolin-2-yl)-ethyl]-6-(2-dimethylamino-ethyl)-1-methyl-4-(4-trifluoromethylphenyl)-1,4-dihydropyridine-3,5-dicarboxylate dihydrochloride] | + |  | 0 |
| COC(=O)C1=C(C)N(C)C(C)=C(C(=O)OC)C1c1ccco1 [Example 44, Dimethyl 4-(furan-2-yl-1,2,6-trimethyl-1,4-dihydropyridine-3,5-dicarboxylate] | + | 142 to 143 | 0 |
| COC(=O)C1=C(C)N(C)C(C)=C(C(=O)OC)C1c1ccsc1 [Example 45, Dimethyl 1,2,6-Trimethyl-4-(thiophen-3-yl)-1,4-dihydropyridine-3,5-dicarboxylate] | + | 187 to 189 | 0 |
